{"source": "patent US20040198841A1", "about": "“Use of thiol-based compositions in ameliorating mucosal injury” (Oregon Health & Science University, priority 2003, published 2004)", "key": {"[1]": {"conditions": "Brizel DM, J Clin Oncol 2000; cited from earlier work"}, "[2]": {"test_system": "Normal human gastric cells (NHGC)", "assay": "WST-1 colorometric assay, chemoprotection against BR96-dox toxicity (Example 4)", "format": "cell-based", "conditions": "for chemoprotection against BR96-dox toxicity: first test: drug and chemoprotectant co-incubated for 2-3 days", "procedure": "Normal human gastric cells (NHGC) express high levels of the LewisY antigen recognized by the BR96 monoclonal antibody. BR-96 and BR-96-Dox toxicity was examined in NHGC to determine if toxicity could be protected against with thiol chemoprotectants.\n(§1) Cytotoxicity is determined as the proportion of live cells, in comparison to untreated controls, using the WST-1 colorometric assay available from Roche Diagnostics, Indianapolis, Ind."}, "[3]": {"assay": "Weight loss and diarrhea in Long Evans rats seven days after intra-arterial Cisplatin with or without i.v. NAC (Example 1)", "format": "in vivo", "conditions": "Cisplatin 6 mg/kg intra-arterially", "procedure": "The graph shown as FIG. 1 represents the weight loss in grams in Long Evans rats seven days after administration of Cisplatin and NAC. Six mg/kg of Cisplatin was given intra-arterially either with or without intravenous (i.v.) administration of NAC at a dosage of 400 mg/kg. The NAC was administered about 15 minutes prior to the Cisplatin administration. The group without NAC consisted of 11 members. The NAC-treated group consisted of 8 members.\nIn the method of Example 1 for Cisplatin, the Long Evans rats were weighed, induced with isoflurane inhalant (2%+1.5% O2), intubated, placed on a respirator, and prepped for surgery. Isoflurane was then replaced with propofol (800 ug/kg/min i.v.) and a 50% nitrous/50% oxygen mixture. A ventral midline incision was made from mandible to manubrium. The left carotid bifurcation was exposed and freed, and the left external carotid artery was cannulated. NAC was then given intravenously to the treated group and intravenous saline was given to the untreated group. After 15 minutes, the left internal carotid artery was clamped, and Cisplatin (6 mg/kg) was infused through the external carotid catheter. The cannula was removed, and the skin incisions were closed using 4-0 Vicryl in a simple continuous pattern.\nSeven days after Cisplatin infusion, the rats were weighed. These body weights were compared to those taken before surgery. […] This is correlated with renal failure and/or mucositis in the untreated group."}, "[4]": {"assay": "Weight loss in Long Evans rats 7 days after cisplatin to the aorta, 15 minutes after i.v. saline or NAC (Example 5)", "format": "in vivo", "conditions": "cisplatin 6 mg/kg via right external carotid artery cannula; NAC 400 mg/kg i.v. 15 minutes before; n=8 per group", "procedure": "Before the study began, the rats were weighed to establish a baseline. Long Evans rats were treated with cisplatin 6 mg/kg delivered to the aorta via a right external carotid artery cannula 15 minutes after intravenous infusion of saline (n=8) or NAC 400 mg/kg (n=8). This procedure was preformed by the rats being induced with isoflurane inhalant (2%+1.5% oxygen), intubated, placed on a respirator and prepped for surgery. Isoflurane was then replaced with propofol (800 μg/kg/min i.v.) and a 50% nitrous/50% oxygen mixture. A ventral midline incision was made from mandible to manubrium. The right carotid bifurcation was exposed and freed, and the right external carotid artery was cannulated. NAC (400 mg/kg) was then given to the treated group (n=8) and i.v. saline was given to the untreated group (n=8). After 15 minutes, the right internal carotid artery was clamped and cisplatin (6 mg/kg) was rapidly infused through the external carotid catheter. The cannula was removed and the skin incisions were closed using 4-0 Vicryl in a simple continuous pattern. Health and well being were monitored daily post-surgery. After seven days, the animals were weighed and this value compared to the baseline."}, "GM294 human fibroblasts": {"test_system": "GM294 human fibroblasts", "assay": "WST colorometric cytotoxicity assay, chemoprotection with or without BSO cytoenhancement (Example 3)", "format": "cell-based", "conditions": "NAC 1000 μg/ml added immediately after melphalan, cisplatin, carboplatin or etoposide phosphate; with or without 100 μM BSO pretreatment", "procedure": "Cytotoxicity was assessed in GM294 human fibroblasts, 1×10^4 cells per well in 96 well plates, using the WST colorometric assay. Cells were pretreated with or without BSO, 100 μM for 18 hours prior to addition of chemotherapeutics (melphalan=10 μg/ml, carboplatin=100 μg/ml, cisplatin=7.5 μg/ml, etoposide phosphate 100 μg/ml) either alone (open bar), or with NAC rescue, (1000 μg/ml N-acetylcysteine, striped bar), BSO cytoenhancement (black bar), or BSO cytoenhancement and NAC rescue (cross hatched bar). Data are expressed as the percentage of live cells compared to control samples (without chemotherapy) and each point represents the mean±s.d. of 4 wells. This was also repeated with normal human gastric cells (NHGC) and gastric epithelial cells.\nThe fibroblast cells were either preincubated or not preincubated with 100 μM BSO for about 18-24 hours prior to addition of chemotherapy, and rescue consisted of 1000-2000 μg/ml of a thiol anti-mucosal injury agent added immediately after chemotherapy. […] Protection of epithelia cells allows for the prevention and treatment of mucositis of these tissues."}, "LX-1 cells": {"test_system": "LX-1 cells", "assay": "Chemoprotection in LX-1 cells (Example 4)", "format": "cell-based", "conditions": "low dosages, about 0.2 to about 0.5 mg/ml", "procedure": "as §1\nLow dosages, about 0.2 to about 0.5 mg/ml, of NAC were protective against alkylators in LX-1 cells. NAC was 10-90% chemoprotective of NHGC at high dosages, such as from about 1-5 mg/ml."}, "LX-1 SCLC": {"test_system": "LX-1 SCLC", "assay": "Weight loss and survival in nude rats 12 days after intracerebral inoculation with LX-1 SCLC cells, with or without oral TMZ (Example 2)", "format": "in vivo", "procedure": "TMZ was given at a dosage of 5 mg orally, once daily, on days 6-11. There were 10 members in the untreated group and seven members in the group treated with TMZ.\nFor the intracerebral inoculations, the nude rats were anesthetized with a mixture of intraperitoneal ketamine (60 mg/kg) and diazepam (7.5 mg/kg). The head was shaved and scrubbed with Betadine, a midline incision made, and a 2 mm burr hole using stereotaxic coordinates was made. A 27 g needle was used for inoculation with a 100 ul Hamilton syringe, placed […] ventral to the surface, deep in the right caudate putamen. Inoculants used were LX-1 SCLC. The needle was withdrawn and the incision closed with wound clips. One group of rats received no treatment, while the other group received oral 5 mg doses of TMZ, an alkylating agent, once daily on days 6-11 after inoculation, delivered through a feeding tube while under isoflurane anesthesia. On day 12, all rats were weighed, sacrificed, and the brains removed and fixed in formalin for subsequent tumor-volume analysis.\nIt is believed that TMZ effects the size of any lesions in the brain. The TMZ may decrease the size of any lesions in the brain; those animals experiencing more constant or improved appetite than animals with larger tumors which experienced appetite suppression."}, "[5]": {"conditions": "NAC 400 mg/kg i.v. 15 minutes prior"}}, "data": [{"smiles": "NCCCNCCSP(=O)(O)O", "note": "[Amifostine, amifostine]", "values": [{"measurement": "effect on mucositis in patients undergoing radiation therapy", "setting": "[1]", "value": "not to reduce mucositis"}]}, {"smiles": "CCOC(=O)CNC(=O)[C@H](CS)NC(=O)CC[C@H](N)C(=O)O", "note": "[GSH ethyl ester, glutathione ethyl ester]", "values": [{"measurement": "chemoprotection against BR96-dox toxicity", "setting": "[2]", "value": "No chemoprotection"}]}, {"smiles": "CC(=O)N[C@@H](CS)C(=O)O", "note": "[NAC, N-acetylcysteine]", "values": [{"measurement": "diarrhea, group without NAC compared to NAC treated group", "setting": "[3]; [5]", "value": "greater diarrhea than the NAC treated group"}, {"measurement": "subjective condition of untreated rats compared to NAC-treated group", "setting": "[3]; [5]", "value": "more depressed, cachexic, and dehydrated than the NAC-treated group"}, {"measurement": "loss of body weight after 7 days, group without NAC compared to NAC-treated group", "setting": "[3]; NAC 400 mg/kg i.v. about 15 minutes prior, unpaired t-test p<0.0002", "value": "significantly larger loss of body weight"}, {"measurement": "weight loss after 7 days compared to control", "setting": "[4]", "value": "less weight loss than the control"}, {"measurement": "chemoprotection of fibroblast cells (percentage of live cells)", "setting": "GM294 human fibroblasts", "value": "protective effect"}, {"measurement": "protection against alkylators in LX-1 cells", "setting": "LX-1 cells", "value": "protective"}, {"measurement": "chemoprotective of NHGC", "setting": "[2]; first test: co-incubated for 2-3 days, high dosages, about 1-5 mg/ml", "value": "10-90%"}, {"measurement": "chemoprotective, pulsed treatment", "setting": "[2]; second test: 4 hour pulsed treatment with BR-96-dox and NAC", "value": "0-20%"}]}, {"smiles": "O=S([O-])([O-])=S.[Na+].[Na+]", "note": "[STS, sodium thiosulfate]", "values": [{"measurement": "chemoprotection against BR96-dox toxicity", "setting": "[2]", "value": "No chemoprotection"}]}, {"smiles": "Cn1nnc2c(C(N)=O)ncn2c1=O", "note": "[TMZ, Temazolamide]", "values": [{"measurement": "subjective activity at day 12 compared to untreated group", "setting": "LX-1 SCLC; TMZ 5 mg orally once daily on days 6-11", "value": "more active and responsive"}, {"measurement": "survival to day 12", "setting": "LX-1 SCLC; TMZ 5 mg orally once daily on days 6-11, three rats without TMZ did not survive to day 12", "value": "all of the TMZ rats survived to day 12"}, {"measurement": "loss of body weight at day 12, group without TMZ compared to group treated with TMZ", "setting": "LX-1 SCLC; TMZ 5 mg orally once daily on days 6-11 after inoculation, unpaired t-test p<0.0041", "value": "significantly higher loss of body weight"}]}, {"smiles": "CSCC[C@@H](N)C(=O)O", "note": "[d-Methionine, D-methionine]", "values": [{"measurement": "chemoprotection against BR96-dox toxicity", "setting": "[2]", "value": "No chemoprotection"}]}]}
